From ChEMBL document CHEMBL4270566, “New aziridine-based inhibitors of cathepsin L-like cysteine proteases with selectivity for the Leishmania cysteine protease LmCPB2.8” (Eur J Med Chem, 2018)
Calls of active or inactive are those of the source. The calls are words filed in the database; no cut-off is given here.

Assays:
Procathepsin L [1] = target: T1, Procathepsin L (Homo sapiens, UniProt P07711); test: Inhibition of human cathepsin-L at 20 uM using Z-Phe-Arg-AMC as substrate by fluorometric assay relative to control
Target sequence in this assay (P07711 114-333 limits assumed): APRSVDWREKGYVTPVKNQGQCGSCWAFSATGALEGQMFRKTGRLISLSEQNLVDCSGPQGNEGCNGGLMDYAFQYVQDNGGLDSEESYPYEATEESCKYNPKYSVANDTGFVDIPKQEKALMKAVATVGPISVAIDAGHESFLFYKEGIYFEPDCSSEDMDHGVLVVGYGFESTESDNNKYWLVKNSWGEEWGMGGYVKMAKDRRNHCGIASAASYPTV

Cathepsin B = Cathepsin B (Homo sapiens, UniProt P07858); test: Inhibition of human cathepsin-B at 20 uM using Z-Phe-Arg-AMC as substrate by fluorometric assay relative to control
Leishmania major [2] = test: Antileishmanial activity against Leishmania major promastigotes; format: functional, organism-based
[3] = Inhibition of Leishmania mexicana cathepsin L-like protease CPB2.8 using Z-Phe-Arg-AMC as substrate by fluorometric assay
Rhodesain = Rhodesain (Trypanosoma brucei rhodesiense, UniProt Q95PM0); test: Inhibition of Trypanosoma brucei rhodesiense rhodesain using Z-Phe-Arg-AMC as substrate by fluorometric assay
Chain of Rhodesain (Q95PM0 whole entry): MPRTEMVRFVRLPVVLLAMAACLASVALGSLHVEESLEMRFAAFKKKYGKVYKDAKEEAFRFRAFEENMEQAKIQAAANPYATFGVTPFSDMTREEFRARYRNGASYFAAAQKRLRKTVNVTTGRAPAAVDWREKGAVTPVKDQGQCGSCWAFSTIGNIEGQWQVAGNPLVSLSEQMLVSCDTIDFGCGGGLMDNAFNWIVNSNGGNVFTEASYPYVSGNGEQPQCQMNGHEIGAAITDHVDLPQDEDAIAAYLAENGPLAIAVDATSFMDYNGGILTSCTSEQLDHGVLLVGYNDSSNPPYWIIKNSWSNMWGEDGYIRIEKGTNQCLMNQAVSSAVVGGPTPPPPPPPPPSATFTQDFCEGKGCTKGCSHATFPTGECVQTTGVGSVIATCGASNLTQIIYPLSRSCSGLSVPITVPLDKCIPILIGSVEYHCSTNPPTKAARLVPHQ

[4] = target: T2, Falcipain 2 (Plasmodium falciparum) (UniProt Q9N6S8); test: Inhibition of Plasmodium falciparum falcipain 2 at 20 uM using Z-Phe-Arg-AMC as substrate by fluorometric assay relative to control
T2 sequence (whole entry): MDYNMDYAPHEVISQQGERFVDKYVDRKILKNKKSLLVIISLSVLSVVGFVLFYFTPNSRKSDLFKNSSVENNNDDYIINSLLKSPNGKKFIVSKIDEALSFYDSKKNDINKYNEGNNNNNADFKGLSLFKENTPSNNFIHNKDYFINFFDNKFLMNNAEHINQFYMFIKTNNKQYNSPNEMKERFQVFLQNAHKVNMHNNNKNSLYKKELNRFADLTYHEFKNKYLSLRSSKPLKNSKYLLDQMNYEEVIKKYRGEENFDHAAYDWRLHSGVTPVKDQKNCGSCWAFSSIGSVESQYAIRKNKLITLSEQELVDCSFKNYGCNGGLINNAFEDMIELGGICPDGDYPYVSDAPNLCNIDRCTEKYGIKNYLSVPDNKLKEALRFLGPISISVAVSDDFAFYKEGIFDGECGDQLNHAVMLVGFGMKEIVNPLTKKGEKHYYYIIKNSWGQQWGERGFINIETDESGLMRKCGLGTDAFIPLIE

Cruzipain = Cruzipain (Trypanosoma cruzi, UniProt P25779); test: Inhibition of Trypanosoma cruzi cruzain using Z-Phe-Arg-AMC as substrate by fluorometric assay
Chain of Cruzipain (P25779 whole entry): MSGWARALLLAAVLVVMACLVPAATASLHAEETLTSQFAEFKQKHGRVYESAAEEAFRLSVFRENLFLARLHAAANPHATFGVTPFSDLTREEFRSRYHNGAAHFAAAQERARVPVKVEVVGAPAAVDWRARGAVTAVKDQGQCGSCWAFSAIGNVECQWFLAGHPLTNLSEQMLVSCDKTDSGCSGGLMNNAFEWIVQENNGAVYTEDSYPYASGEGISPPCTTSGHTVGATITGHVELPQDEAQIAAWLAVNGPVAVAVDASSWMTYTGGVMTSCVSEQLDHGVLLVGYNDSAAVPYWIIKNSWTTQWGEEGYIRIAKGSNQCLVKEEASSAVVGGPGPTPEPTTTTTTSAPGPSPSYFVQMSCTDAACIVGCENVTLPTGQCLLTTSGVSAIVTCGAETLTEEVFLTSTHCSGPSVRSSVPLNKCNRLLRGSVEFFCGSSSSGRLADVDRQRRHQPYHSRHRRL

Leishmania mexicana [5] = test: Inhibition of Leishmania mexicana cathepsin L-like protease CPB2.8 at 20 uM using Z-Phe-Arg-AMC as substrate by fluorometric assay relative to control
[6] = target: Cruzipain (Trypanosoma cruzi) (UniProt P25779); test: Inhibition of Trypanosoma cruzi cruzain at 20 uM using Z-Phe-Arg-AMC as substrate by fluorometric assay relative to control
Chain of Cruzipain (Trypanosoma cruzi) (P25779 123-467 limits assumed): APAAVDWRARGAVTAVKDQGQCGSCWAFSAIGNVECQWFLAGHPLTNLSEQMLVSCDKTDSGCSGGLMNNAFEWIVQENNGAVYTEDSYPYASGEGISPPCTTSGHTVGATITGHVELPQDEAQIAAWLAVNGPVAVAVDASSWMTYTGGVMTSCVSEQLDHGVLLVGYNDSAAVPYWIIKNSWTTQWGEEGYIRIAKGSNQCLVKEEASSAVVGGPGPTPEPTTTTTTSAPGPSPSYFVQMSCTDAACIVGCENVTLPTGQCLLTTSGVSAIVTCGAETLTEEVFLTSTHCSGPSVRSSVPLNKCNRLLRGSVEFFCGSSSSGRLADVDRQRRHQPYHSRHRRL

[7] = target: Rhodesain (Trypanosoma brucei rhodesiense) (UniProt Q95PM0); test: Inhibition of Trypanosoma brucei rhodesiense rhodesain at 20 uM using Z-Phe-Arg-AMC as substrate by fluorometric assay relative to control
Chain of Rhodesain (Trypanosoma brucei rhodesiense) (Q95PM0 1-450): as the sequence (Q95PM0 whole entry) above

Leishmania major [8] = test: Antileishmanial activity against luciferase-fused Leishmania major amastigotes infected in BMDM after 24 hrs by luminescence assay; format: functional, organism-based
Procathepsin L [9] = target: T1, Procathepsin L; test: Inhibition of human cathepsin-L using Z-Phe-Arg-AMC as substrate by fluorometric assay
Target sequence in this assay (P07711 whole entry): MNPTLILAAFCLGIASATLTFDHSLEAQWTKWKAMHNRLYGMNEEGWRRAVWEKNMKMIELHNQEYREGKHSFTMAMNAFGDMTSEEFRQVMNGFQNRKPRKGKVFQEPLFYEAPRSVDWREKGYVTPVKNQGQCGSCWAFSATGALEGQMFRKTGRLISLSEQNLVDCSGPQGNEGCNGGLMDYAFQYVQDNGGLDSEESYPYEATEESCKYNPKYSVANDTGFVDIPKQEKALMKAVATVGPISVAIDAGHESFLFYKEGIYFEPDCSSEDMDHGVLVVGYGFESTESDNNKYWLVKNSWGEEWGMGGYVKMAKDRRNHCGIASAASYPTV

Falcipain 2 = target: T3, Falcipain 2 (Plasmodium falciparum, UniProt Q9N6S8); test: Inhibition of Plasmodium falciparum falcipain 2 using Z-Phe-Arg-AMC as substrate by fluorometric assay
T3 sequence (Q9N6S8 whole entry): T2 sequence (whole entry)

[10] = target: T2, Falcipain 2 (Plasmodium falciparum); test: Inhibition of Plasmodium falciparum falcipain 2 assessed as second order inactivation rate constant using Z-Phe-Arg-AMC as substrate by fluorometric assay
[11] = target: Rhodesain (Trypanosoma brucei rhodesiense) (UniProt Q95PM0); test: Inhibition of Trypanosoma brucei rhodesiense rhodesain assessed as second order inactivation rate constant using Z-Phe-Arg-AMC as substrate by fluorometric assay
Leishmania mexicana [12] = test: Inhibition of Leishmania mexicana cathepsin L-like protease CPB2.8 assessed as second order inactivation rate constant using Z-Phe-Arg-AMC as substrate by fluorometric assay
J774 = test: Cytotoxicity against mouse J774 cells; format: cell-based

Structure (SMILES) | inhibition (Procathepsin L [1]) | inhibition (Cathepsin B) | EC50 (Leishmania major [2]) [µM] | Ki [3] [µM] | Ki (Rhodesain) [µM] | inhibition [4] | Ki (Cruzipain) [µM] | inhibition (Leishmania mexicana [5]) [%] | inhibition [6] [%] | inhibition [7] [%] | EC50 (Leishmania major [8]) [µM] | Ki (Procathepsin L [9]) [µM] | Ki (Falcipain 2) [µM] | K [10] [M⁻¹ s⁻¹] | K [11] [M⁻¹ s⁻¹] | K (Leishmania mexicana [12]) [M⁻¹ s⁻¹] | Activity (J774) [µM]
CC(C)C[C@@H](NC(=O)OC(C)(C)C)C(=O)N1CCC[C@H]1C(=O)N1[C@@H](C(=O)OCc2ccccc2)[C@@H]1C(=O)OCc1ccccc1 | inactive | inactive | 95 | 3.4 | 15.2 | inactive | 30.9 |  |  |  |  |  |  |  |  |  | 
CCOC(=O)C1C(C(=O)OCc2ccccc2)N1C(=O)[C@H]1CCCN1C(=O)[C@H](CC(C)C)NC(=O)OC(C)(C)C (mixture of isomers) | < 50% | inactive |  |  |  | < 50% |  | < 50 | < 50 | < 50 |  |  |  |  |  |  | 
CC(C)C[C@H](NC(=O)OC(C)(C)C)C(=O)N1CCC[C@@H]1C(=O)N1C(C(=O)OCC2CCCCC2)C1C(=O)OCC1CCCCC1 (mixture of isomers) | < 50% | inactive |  | 0.77 |  | < 50% |  | > 50 | < 50 | < 50 |  |  |  |  |  |  | 
CC(C)C[C@H](NC(=O)OC(C)(C)C)C(=O)N1CCC[C@@H]1C(=O)N1C(C(=O)OCc2ccccc2)C1C(=O)OC(C)(C)C (mixture of isomers) | < 50% | inactive |  |  |  | < 50% |  | < 50 | < 50 | < 50 |  |  |  |  |  |  | 
CC(C)C[C@H](NC(=O)OC(C)(C)C)C(=O)N1CCC[C@@H]1C(=O)N1C(C(=O)OCc2ccccc2)C1C(=O)OCc1ccc2ccccc2c1 (mixture of isomers) | < 50% | inactive |  | 0.8 |  | < 50% |  | > 50 | < 50 | < 50 |  |  |  |  |  |  | 
CC(C)C[C@@H](NC(=O)OC(C)(C)C)C(=O)N1CCC[C@H]1C(=O)N1[C@H](C(=O)OCc2ccccc2)[C@H]1C(=O)OCc1ccccc1 |  | inactive | 35.4 | 2.1 |  |  | 0.79 |  |  |  | 2.7 | 4 | 28.3 |  |  |  | 
CC(C)C[C@H](NC(=O)OC(C)(C)C)C(=O)N1CCC[C@@H]1C(=O)N1C(C(=O)OCCCc2ccccc2)C1C(=O)OCCCc1ccccc1 (mixture of isomers) | < 50% | inactive |  | 0.9 |  | < 50% |  | > 50 | < 50 | < 50 |  |  |  |  |  |  | 
CC(C)C[C@H](NC(=O)OC(C)(C)C)C(=O)N1CCC[C@@H]1C(=O)N1C(C(=O)O)C1C(=O)OCCCc1ccccc1 (mixture of isomers) | < 50% | inactive |  |  |  | > 50% |  | < 50 | < 50 | < 50 |  |  | 28.6 | 55.8 |  |  | 
CC(C)C[C@H](NC(=O)OC(C)(C)C)C(=O)N1CCC[C@@H]1C(=O)N1C(C(=O)O)C1C(=O)OCCc1ccccc1 (mixture of isomers) | < 50% | inactive |  | 0.44 | 0.16 | > 50% |  | > 50 | < 50 | > 50 |  |  | 1.26 | 185 | 2970 | 3180 | 
CC[C@H](C)[C@H](NC(=O)OC(C)(C)C)C(=O)N1CCC[C@@H]1C(=O)N1[C@@H](C(=O)OCc2ccccc2)[C@@H]1C(=O)OCc1ccccc1 |  |  | 9.8 |  |  |  |  |  |  |  | 2 |  |  |  |  |  | > 250
CC(C)[C@H](NC(=O)OC(C)(C)C)C(=O)N1CCC[C@@H]1C(=O)N1[C@@H](C(=O)OCc2ccccc2)[C@@H]1C(=O)OCc1ccccc1 |  |  | 34.8 |  |  |  |  |  |  |  | 2.2 |  |  |  |  |  | > 250
